Experimental data published in PubChem BioAssay AID1259418 (Broad Institute, 2018).
Values joined by “and” are separate entries in the source; they are usually repeats but may differ in a detail not shown here. Equal values may be shown once. Records with an inconclusive call do not appear. Active and inactive are the calls of the source.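 The calls were made as follows: active = fitted half-maximal concentration of signal decrease at or below twice the sample's top tested concentration; inconclusive = flat curve between -70 and -30 percent, or poor fit; inactive = flat within 30 percent, signal rise, or potency above limit.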

The compounds below were run against T. gondii ME49Luc in IFN-y HeLa, luciferase, 72 h (assay: T. gondii growth inhibition with IFN-gamma, dose response, cell-based, ME49Luc, HeLa, luciferase, 72 h (AID 1259418)).

First: O=C(c1cccc(F)c1)N1CCCCN2[C@H](C1)[C@H](c1ccc(C#CC3(O)CCCC3)cc1)[C@@H]2CO
Second: O=C(Cc1ccncc1)N1CCCCN2[C@H](CO)[C@@H](c3ccc(C#Cc4ccccc4F)cc3)[C@H]2C1
The AC50 of the first is 2.1-fold lower: 9.01 µM for the first, 18.5 µM for the second.

`Cc1ccc(S(=O)(=O)N2CCC3(CC2)NCCN=C3NC2CCCCCC2)cc1C` and `Cc1ccc(S(=O)(=O)N2CCC3(CC2)NCCN=C3NCc2ccccc2F)cc1C` are within 1.5-fold of each other in AC50: 18.6 µM for the first, 22.5 µM for the second.

`O=C(CC1CC1)N1CC[C@@H]2[C@H]1c1cc(-c3ccc(F)cc3)ccc1N[C@@H]2CO` and `COc1cccc(-c2ccc3c(c2)[C@H]2[C@H](CCN2S(=O)(=O)c2ccccc2F)[C@H](CO)N3)c1` are within 1.5-fold of each other in AC50: 19.7 µM for the first, 19.3 µM for the second.

`O=C(CC1N=C2c3ccccc3N=C(SCc3cccc(F)c3)N2C1=O)NC1CCCCC1` (stereo unspecified) and `O=C(CC1N=C2c3ccccc3N=C(SCc3ccc(F)cc3)N2C1=O)NCc1cccs1` (stereo unspecified) are within 1.5-fold of each other in AC50: 30 µM for the first, 35 µM for the second.

`Cc1cccc(-n2ncc3c(NCc4cccc(Cl)c4)ncnc32)c1` and `COc1ccc(Cl)cc1NC(=O)COc1nc(C)nc2ccccc12` are within 1.5-fold of each other in AC50: 24.5 µM for the first, 24.1 µM for the second.

`CCc1nc(OCC(=O)Nc2ccccc2)c2ccccc2n1` and `COc1ccc(-c2nc(N3CCOCC3)c3ccccc3n2)cc1` are within 1.5-fold of each other in AC50: 27.7 µM for the first, 36.1 µM for the second.

`Cc1ccc(CNC2=NCCNC23CCN(S(=O)(=O)c2ccc4c(c2)CCCC4)CC3)cc1` and `Cc1ccc(CNC2=NCCNC23CCN(S(=O)(=O)c2cc(C)cc(C)c2)CC3)cc1` are within 1.5-fold of each other in AC50: 19.4 µM for the first, 23.4 µM for the second.

Going from `CCc1cc(C(=O)Nc2ccc(C)cc2-c2cc(C)[nH]n2)c2c(C)noc2n1` to `COc1ccccc1C(=O)Nc1ccc(-c2nc(-c3cc(C)ccc3C)co2)cc1`, the AC50 falls from 11.8 µM to 5.13 µM (2.3-fold).

Going from `CC(C)CNC(=O)c1nc2c(s1)CCN(C(=O)NCc1ccccc1)CC2` to `CNC(=O)NCC1CCC2(CCN(Cc3ccccc3)CC2)CO1` (stereo unspecified), the AC50 rises from 16.1 µM to 26.3 µM (1.6-fold).

`O=C(Cc1ccncc1)N1CCCCN2[C@H](CO)[C@H](c3ccc(C#Cc4ccccc4F)cc3)[C@H]2C1` and `CCc1cnc(N2[C@H](C#N)[C@H](c3ccc(C#Cc4ccccc4F)cc3)[C@@H]2CO)s1` are within 1.5-fold of each other in AC50: 20 µM for the first, 19.4 µM for the second.

`COc1ccccc1-c1nc(CN(c2ccccc2OC)S(=O)(=O)c2ccccc2)c(C)o1` and `COc1ccc(N(Cc2nc(-c3ccccc3OC)oc2C)S(=O)(=O)c2cccs2)cc1` are within 1.5-fold of each other in AC50: 5.18 µM for the first, 3.72 µM for the second.

Compared with `Cc1ccc(S(=O)(=O)N2CCC3(CC2)NCCN=C3NCc2ccc3c(c2)OCO3)cc1C`, `Cc1ccc(NC(=O)N2CCN(Cc3nc(-c4cccc(Cl)c4)oc3C)CC2)c(Cl)c1` is 1.5-fold higher in AC50: 22.4 µM for the first, 34.2 µM for the second.

Compared with `CN1C(=O)c2cc(NC(=O)Cc3cccs3)ccc2OC[C@@H]2O[C@H](CC(=O)N[C@H]3CCN(Cc4ccccc4)C3)CC[C@@H]21`, `O=C(C[C@@H]1CC[C@@H]2[C@H](COC[C@@H](O)CN2S(=O)(=O)c2ccccc2)O1)NCC1CCCCC1` is 2.8-fold higher in AC50: 7.53 µM for the first, 20.8 µM for the second.

First: COc1ccc(-c2nc(NCCc3ccc(OC)c(OC)c3)c3ccccc3n2)cc1
Second: COc1ccc(-c2nc(N(CCCN3CCOCC3)Cc3ccco3)c3ccccc3n2)cc1
The AC50 of the first is 1.8-fold higher: 17.4 µM for the first, 9.51 µM for the second.

First: CCS(=O)(=O)N1CCc2nc(-c3cccc(F)c3)nc(NC3CC3)c2C1
Second: Cc1ccc(-c2csc(-c3cccn3CC(=O)NCCN3CCC(C)CC3)n2)cc1
The AC50 of the first is 4.9-fold higher: 31.4 µM for the first, 6.43 µM for the second.

Going from `CCN1CCCC1CNC(=O)C1CCN(Cc2cc3ccccc3n2Cc2cccc(C)c2)CC1` (stereo unspecified) to `O=C(CCn1c2c(c3ccccc31)CCCC2)N1CCC(c2ccncc2)CC1`, the AC50 falls from 25.5 µM to 15.3 µM (1.7-fold).

First: CS(=O)(=O)N1CC(=O)N2[C@H](CO)[C@@H](c3ccc(C#Cc4ccc(F)cc4)cc3)[C@H]2C1
Second: COc1cccc(NC(=O)N2CC(=O)N3[C@@H](CO)[C@@H](c4ccc(C#CCC5CCCC5)cc4)[C@@H]3C2)c1
The AC50 of the first is 1.7-fold higher: 39 µM for the first, 22.5 µM for the second.

`O=C1CCc2cc(NC(=O)c3cccc(C(F)(F)F)c3)ccc2N1` and `O=C(O)CC1CCC(c2ccc(-c3ccc(Nc4ccc(C(F)(F)F)nc4)cn3)cc2)CC1` (stereo unspecified) are within 1.5-fold of each other in AC50: 16.8 µM for the first, 19 µM for the second.

`Cc1cccc(N2CCN(C(=O)CC3Nc4c5ccccc5nc(=S)n4C3=O)CC2)c1C` (stereo unspecified) and `COc1ccc(-c2nc(N3CCN(C4CCCCC4)CC3)c3ccccc3n2)cc1` are within 1.5-fold of each other in AC50: 26.9 µM for the first, 30.1 µM for the second.

Compared with `CCCCNC(=O)CCC1N=C2c3ccccc3N=C(SCc3ccc(Cl)cc3)N2C1=O` (stereo unspecified), `CC[C@H]1CN2CCC1C[C@@H]2[C@@H](O)c1ccnc2ccc(OC)cc12` (stereo partly specified) is 7.6-fold lower in AC50: 17 µM for the first, 2.25 µM for the second.

`CN1C(=O)c2cc(NC(=O)c3cccc(F)c3)ccc2OC[C@@H]2O[C@H](CC(=O)NCC3CCCCC3)CC[C@@H]21` was tested, and the AC50 was 18.6 µM and 22.1 µM.
With `CCc1nc(OCC(=O)Nc2ccccc2C(=O)OC)c2ccccc2n1` the AC50 was > 39 µM (inactive).
With `Cc1ccc(C)c(NC(=O)N2CCN(Cc3nc(-c4cccc(Cl)c4)oc3C)CC2)c1` the AC50 was > 39 µM (inactive).
`CCCCOc1ccc2c(=O)c(-c3cc(C(=O)OC)oc3C)c(C(F)(F)F)oc2c1C` was tested, and the AC50 was 4.38 µM and 7.67 µM.
`COc1ccc(S(=O)(=O)N2CCCCN3[C@H](CO)[C@@H](c4ccc(C#CCC(C)C)cc4)[C@H]3C2)cc1` was tested, and the AC50 was 4.13 µM and 4.65 µM.
With `COc1ccc(C#Cc2ccc([C@@H]3[C@H]4CN(C(=O)NC(C)C)CC(=O)N4[C@H]3CO)cc2)cc1` the AC50 was 9.33 µM and 7.45 µM.
